According to patent publication US20030180339A1, “Topical treatment of skin” (priority 2002, published 2003):

Test system: sebum
Assay: Oil reduction potential of moisturising gels, blinded randomised study in India, Sebumeter SM810 (Example 34)
Type: in vivo, human
Protocol: A study was conducted on 37 normal volunteers in India to determine the oil reduction potential of moisturising gels containing sebum reduction agents.
This study was a blinded, randomised study comparing 2 test gels (containing Cedar wood and Poplar bud) with standard preparation (containing Elubiol).
Women volunteers between the age of 17 and 19 years were screened by measuring sebumeter readings of the left forehead using a Sebumeter SM810. Those volunteers had subumeter reading of […] or above.
These volunteers were instructed to avoid any other face cream, face wash or any other cosmetics during the 8 weeks of the study. After recruitment, volunteers were instructed to use the face wash for the first 2 weeks. This period was considered as the conditioning period.
A baseline sebumeter reading was taken at the end of the conditioning period on 4 sites i.e. left forehead, left cheek, right forehead, and right cheek. Tubes containing the test medicines (which were coded and randomly allocated to each site) were dispensed to the volunteers. Each volunteer was given two test gels, one for left side of the face and the other for right side of the face. […]
The volunteer was requested to make a note of application of face wash and face cream daily on the given diary sheets. Sebumeter readings were taken 3 weeks and 6 weeks later.

With `CCOC(=O)N1CCN(c2ccc(OC[C@H]3CO[C@](Cn4ccnc4)(c4ccc(Cl)cc4Cl)O3)cc2)CC1` [Elubiol, dichlorophenyl-imidazoltioxolan] the “effect on sebumeter readings, comparison between treatments” value (at 6 weeks) was “improved” and the “fall in the sebum reading at 6 weeks as compared to 3 weeks” value (gel twice a day) was “significantly greater fall”.
